PMC10585773, “Green synthesis of highly functionalized heterocyclic bearing pyrazole moiety for cancer-targeted chemo/radioisotope therapy” (BMC Chemistry, 2023)

Columns and labels:
[1] = system: HCT-116; assay: MTT assay, in-vitro cytotoxicity against HCT-116; format: cell-based; conditions: Homo sapiens, HCT-116 colorectal carcinoma cells, scale: 1–10 very strong, 11–20 strong, 21–50 moderate, 51–100 weak, above 100 non-cytotoxic
Source text: (§1) Hepatocellular carcinoma (HepG2), and colorectal carcinoma (HCT-116). The cell lines were obtained from ATCC via Holding company for biological products and vaccines (VACSERA), Cairo, Egypt.
(§2) The reagents RPMI-1640 medium, MTT and DMSO (sigma co., St. Louis, USA), Fetal Bovine serum (GIBCO, UK). 5-Fluorouracil was used as a standard anticancer drug for comparison.
(§3) HepG2 and (HCT-116 were used to determine the inhibitory effects of compounds on cell growth using the MTT assay. The relative cell viability in percentage was calculated as (A570 of treated samples/A570 of untreated sample) X 100.

[2] = system: HepG2; assay: MTT assay, in-vitro cytotoxicity against HepG2; format: cell-based; conditions: Homo sapiens, HepG2 hepatocellular carcinoma cells, scale: 1–10 very strong, 11–20 strong, 21–50 moderate, 51–100 weak, above 100 non-cytotoxic
Source text: as §1, §2, §3

SMILES	IC50 [1] [µM]	IC50 [2] [µM]
Nc1n[nH]c2c1c(-c1ccccc1)nn2-c1ccccc1 [Compound 5, 4,6-Diphenyl-1,6-dihydropyrazolo[3,4-c]pyrazol-3-amine]	13.8 ± 3.9	8.8 ± 5.1
CCOc1nc(-c2ccccc2)nc2c1c(-c1ccccc1)nn2-c1ccccc1 [Compound 8, 4-Ethoxy-1,3,6-triphenyl-1H-pyrazolo[3,4-d]pyrimidine]	17.4 ± 3.9	12.1 ± 5.1
NC(=O)c1c(N)nc2c(c(-c3ccccc3)nn2-c2ccccc2)c1N [Compound 3, 4,6-Diamino-1,3-diphenyl-1H-pyrazolo[3,4-b]pyridine-5-carboxamide]	29.4 ± 2.3	22.8 ± 2.1
Nc1nc(-c2c(-c3ccccc3)nn(-c3ccccc3)c2N)nc2c1c(-c1ccccc1)nn2-c1ccccc1 [Compound 9, 6-(5-Amino-1,3-diphenyl-1H-pyrazol-4-yl)-1,3-diphenyl-1H-pyrazolo[3,4-d]pyrimidin-4-amine]	33.6 ± 2.1	55.7 ± 2.7
N#Cc1c(N)nc2c(c(-c3ccccc3)nn2-c2ccccc2)c1N [Compound 2, 4,6-Diamino-1,3-diphenyl-1H-pyrazolo[3,4-b]pyridine-5-carbonitrile]	7.7 ± 1.8	9.2 ± 2.8
O=c1[nH]cc(F)c(=O)[nH]1 [Compound 5-Fu, 5-Fluorouracil, reference compound]	5.35 ± 0.3	7.86 ± 0.5
Nc1c(C(=O)O)[nH]c2c1c(-c1ccccc1)nn2-c1ccccc1 [Compound 4, 4-Amino-1,3-diphenyl-1,6-dihydropyrrolo[2,3-c]pyrazole-5-carboxylic acid]	15.2 ± 2.4	14.5 ± 2.8
Nc1nc(=O)[nH]c2c1c(-c1ccccc1)nn2-c1ccccc1 [Compound 6, 4-Amino-1,3-diphenyl-1,7-dihydro-6H-pyrazolo[3,4-d]pyrimidin-6-one]	51 ± 2.7	91.4 ± 4.2
Nc1nc(=S)[nH]c2c1c(-c1ccccc1)nn2-c1ccccc1 [Compound 7, 4-Amino-1,3-diphenyl-1,7-dihydro-6H-pyrazolo[3,4-d]pyrimidine-6-thione]	13.1 ± 2.3	10.2 ± 2.1
